Assay results: PubChem BioAssay AID330 (DTP/NCI, 2004)
Values joined by “and” are separate entries in the source; they are usually repeats but may differ in a detail not shown here. Equal entries are not always repeated. Toxic doses and inconclusive results are not listed. Rule for the calls: active = survival T/C of 150% or more; inactive = T/C below 125% in these data.

Test system: P388 leukemia ip, CD2F1 mice, survival T/C
Test: NCI In Vivo Anticancer Drug Screen. Data for tumor model P388 Leukemia (intraperitoneal) in CD2F1 (CDF1) mice
Settings: endpoint: median survival time, higher = longer survival
In short: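 Mice carrying the transplanted tumor received test compound or vehicle. Survival was recorded in each group, and the value is the treated-group measurement divided by that of the vehicle-treated control group.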

[1] = dose: 100.0 mg/kg/injection, schedule: Q01DX009 (ip), vehicle: saline with Tween-80
[2] = dose: 100.0 mg/kg/injection, schedule: Q04DX003 (ip), vehicle: saline with Tween-80
[3] = dose: 200.0 mg/kg/injection, schedule: Q01DX009 (ip), vehicle: saline with Tween-80
[4] = dose: 200.0 mg/kg/injection, schedule: Q04DX003 (ip), vehicle: saline with Tween-80
[5] = dose: 400.0 mg/kg/injection, schedule: Q01DX009 (ip), vehicle: saline with Tween-80
[6] = dose: 400.0 mg/kg/injection, schedule: Q04DX003 (ip), vehicle: saline with Tween-80
[7] = dose: 7.5 mg/kg/injection, schedule: Q01DX005 (ip), vehicle: saline with Tween-80
[8] = dose: 15.0 mg/kg/injection, schedule: Q01DX005 (ip), vehicle: saline with Tween-80
[9] = dose: 60.0 mg/kg/injection, schedule: Q01DX005 (ip), vehicle: saline with Tween-80
[10] = dose: 120.0 mg/kg/injection, schedule: Q01DX005 (ip), vehicle: saline with Tween-80
[11] = dose: 240.0 mg/kg/injection, schedule: Q01DX005 (ip), vehicle: saline with Tween-80
[12] = dose: 50.0 mg/kg/injection, schedule: Q01DX005 (ip), vehicle: saline with Tween-80
[13] = dose: 100.0 mg/kg/injection, schedule: Q01DX005 (ip), vehicle: saline with Tween-80
[14] = dose: 50.0 mg/kg/injection, schedule: Q01DX009 (ip), vehicle: saline with Tween-80

Measured: T/C

Cc1ccc(C(=O)c2ccccc2C(=O)O)cc1N
inactive: [1] 100 % of control | [2] 100 % of control | [3] 100 % of control | [4] 100 % of control | [5] 100 % of control | [6] 108 % of control

CSC(=S)N/N=C(\C)c1cccc(C)n1
inactive: [7] 100 % of control | [8] 102 % of control | dose: 30.0 mg/kg/injection, schedule: Q01DX005 (ip), vehicle: saline with Tween-80 105 % of control | [9] 100 % of control | [10] 87 % of control | [11] 113 % of control

O=C1CC2(CC(=O)NC2=O)C(=O)N1
inactive: dose: 100.0 mg/kg/injection, schedule: Q01DX001 (ip), vehicle: saline 100 % of control | dose: 200.0 mg/kg/injection, schedule: Q01DX001 (ip), vehicle: saline 97 % of control | dose: 400.0 mg/kg/injection, schedule: Q01DX001 (ip), vehicle: saline 92 % of control

NS(=O)(=O)c1ccc(C(=O)O)s1
inactive: [12] 104 % of control | [13] 100 % of control

CC1OCC(Br)([N+](=O)[O-])CO1 (stereo not given)
inactive: dose: 3.12 mg/kg/injection, schedule: Q01DX009 (ip), vehicle: saline with Tween-80 104 % of control and 110 % of control | dose: 6.25 mg/kg/injection, schedule: Q01DX009 (ip), vehicle: saline with Tween-80 108 % of control and 112 % of control | dose: 12.5 mg/kg/injection, schedule: Q01DX009 (ip), vehicle: saline with Tween-80 100 % of control and 103 % of control and 113 % of control

CCOC(=O)NC12c3ccccc3C(c3ccccc31)C(C(=O)O)C2C(=O)O (stereo not given)
inactive: [1] 118 % of control | [3] 118 % of control | [5] 118 % of control

O=C1NC(=Nc2ccccc2)N(c2ccccc2)C1=Nc1ccccc1
inactive: [14] 88 % of control | [1] 91 % of control | [3] 86 % of control

CCCC(C)C1(CC(C)O)C(=O)NC(=O)NC1=O (stereo not given)
inactive: dose: 50.0 mg/kg/injection, schedule: Q01DX009 (ip), vehicle: Klucel (hydroxypropylcellulose) (HPC) 104 % of control | dose: 100.0 mg/kg/injection, schedule: Q01DX009 (ip), vehicle: Klucel (hydroxypropylcellulose) (HPC) 104 % of control | dose: 200.0 mg/kg/injection, schedule: Q01DX009 (ip), vehicle: Klucel (hydroxypropylcellulose) (HPC) 100 % of control

CC(C)(C)n1nc(C2CC2)c(Br)c1NC(=O)c1ccc(Cl)cc1
inactive: dose: 30.0 mg/kg/injection, schedule: Q01DX005 (ip), vehicle: Klucel (hydroxypropylcellulose) (HPC) 109 % of control | dose: 60.0 mg/kg/injection, schedule: Q01DX005 (ip), vehicle: Klucel (hydroxypropylcellulose) (HPC) 96 % of control | dose: 120.0 mg/kg/injection, schedule: Q01DX005 (ip), vehicle: Klucel (hydroxypropylcellulose) (HPC) 101 % of control | dose: 240.0 mg/kg/injection, schedule: Q01DX005 (ip), vehicle: Klucel (hydroxypropylcellulose) (HPC) 98 % of control

C1=[N+]2CCCC2Cc2ccc3ccccc3c21 (stereo not given)
inactive: dose: 12.5 mg/kg/injection, schedule: Q04DX003 (ip), vehicle: saline 100 % of control | dose: 25.0 mg/kg/injection, schedule: Q04DX003 (ip), vehicle: saline 103 % of control | dose: 50.0 mg/kg/injection, schedule: Q04DX003 (ip), vehicle: saline 100 % of control

c1ccc(C[N+]23CCC(CC2)C3c2ccccc2)cc1 (stereo not given)
inactive: dose: 3.75 mg/kg/injection, schedule: Q01DX005 (ip), vehicle: saline 103 % of control | dose: 7.5 mg/kg/injection, schedule: Q01DX005 (ip), vehicle: saline 103 % of control | dose: 15.0 mg/kg/injection, schedule: Q01DX005 (ip), vehicle: saline 104 % of control

C1CCC2[N-]CCCC2C1.C1CCC2[N-]CCCC2C1.O=[N+]([O-])O.O=[N+]([O-])O.[Cu+2] (stereo not given)
inactive: [7] 99 % of control | [8] 99 % of control

Cc1ccc(NC(=O)N2CCCCC2)cc1NC(=O)N1CCCCC1
inactive: [9] 94 % of control | [10] 91 % of control | [11] 88 % of control

CC1(C)COC(=O)C(C)(C2(C)NC(C)(C)COC2=O)N1 (stereo not given)
inactive: dose: 25.0 mg/kg/injection, schedule: Q01DX009 (ip), vehicle: saline with Tween-80 99 % of control | [14] 102 % of control | [1] 101 % of control | dose: 200.0 mg/kg/injection, schedule: Q01DX001 (ip), vehicle: saline with Tween-80 95 % of control | [3] 114 % of control | dose: 400.0 mg/kg/injection, schedule: Q01DX001 (ip), vehicle: saline with Tween-80 97 % of control | [5] 106 % of control | dose: 800.0 mg/kg/injection, schedule: Q01DX001 (ip), vehicle: saline with Tween-80 101 % of control

NNC(=O)c1cc2c(cn1)[nH]c1ccccc12
inactive: dose: 12.5 mg/kg/injection, schedule: Q01DX009 (ip), vehicle: other 101 % of control | dose: 25.0 mg/kg/injection, schedule: Q01DX009 (ip), vehicle: other 98 % of control | dose: 50.0 mg/kg/injection, schedule: Q01DX009 (ip), vehicle: other 97 % of control | dose: 100.0 mg/kg/injection, schedule: Q01DX009 (ip), vehicle: other 92 % of control | dose: 200.0 mg/kg/injection, schedule: Q01DX009 (ip), vehicle: other 101 % of control

CN=C(c1ccc(NC(=O)c2ccc(C(=O)Nc3ccc(C(=NC)N4CCCC4)cc3)cc2)cc1)N1CCCC1
inactive: dose: 0.39 mg/kg/injection, schedule: Q01DX005 (ip), vehicle: Klucel (hydroxypropylcellulose) (HPC) 99 % of control | dose: 0.78 mg/kg/injection, schedule: Q01DX005 (ip), vehicle: Klucel (hydroxypropylcellulose) (HPC) 93 % of control | dose: 1.56 mg/kg/injection, schedule: Q01DX005 (ip), vehicle: Klucel (hydroxypropylcellulose) (HPC) 94 % of control | dose: 3.12 mg/kg/injection, schedule: Q01DX005 (ip), vehicle: Klucel (hydroxypropylcellulose) (HPC) 97 % of control

O=C1/C(=C/c2cccc(F)c2)SC(=S)N1C1CC1
inactive: dose: 6.25 mg/kg/injection, schedule: Q01DX005 (ip), vehicle: Klucel (hydroxypropylcellulose) (HPC) 96 % of control | dose: 12.5 mg/kg/injection, schedule: Q01DX005 (ip), vehicle: Klucel (hydroxypropylcellulose) (HPC) 96 % of control | dose: 25.0 mg/kg/injection, schedule: Q01DX005 (ip), vehicle: Klucel (hydroxypropylcellulose) (HPC) 99 % of control | dose: 50.0 mg/kg/injection, schedule: Q01DX005 (ip), vehicle: Klucel (hydroxypropylcellulose) (HPC) 94 % of control | dose: 100.0 mg/kg/injection, schedule: Q01DX005 (ip), vehicle: Klucel (hydroxypropylcellulose) (HPC) 92 % of control | dose: 200.0 mg/kg/injection, schedule: Q01DX005 (ip), vehicle: Klucel (hydroxypropylcellulose) (HPC) 87 % of control

CCOc1ccc(CO)cc1
inactive: [2] 120 % of control | [4] 120 % of control | [6] 120 % of control

C/C(O)=C(/N=Nc1ccccc1)C(=O)O
inactive: [9] 110 % of control | [10] 98 % of control

C(=N/n1nnc(-c2ccccc2)n1)/c1ccccc1
inactive: [12] 101 % of control | [13] 92 % of control

Cc1ccc(Br)c(C(O)(C(F)(F)F)C(F)(F)F)c1
inactive: dose: 100.0 mg/kg/injection, schedule: Q01DX001 (ip), vehicle: other 103 % of control and 104 % of control | dose: 200.0 mg/kg/injection, schedule: Q01DX001 (ip), vehicle: other 101 % of control | dose: 400.0 mg/kg/injection, schedule: Q01DX001 (ip), vehicle: other 111 % of control and 108 % of control

CCCCCCCCCCC(=O)N(C(C)CC(C)C)C1CC(C)CC(C)(C)C1 (stereo not given)
inactive: [12] 104 % of control | [13] 100 % of control | dose: 200.0 mg/kg/injection, schedule: Q01DX005 (ip), vehicle: saline with Tween-80 101 % of control
